Assay results taken from patent publication US11964052B2, “Lipid compounds and lipid nanoparticle compositions” (SUZHOU ABOGEN BIOSCIENCES CO., LTD., priority 2021, dated 2024).

Assays:
Type in all cases: physicochemical
[1] = Lipid nanoparticle size and polydispersity by dynamic light scattering (Malvern Zetasizer Nano ZS); conditions: LNP of cationic lipid/DSPC/cholesterol/PEG-lipid 50:10:38.5:1.5 with mRNA
Method: (§1) Briefly, a cationic lipid provided herein, DSPC, cholesterol, and PEG-lipid were solubilized in ethanol at a molar ratio of 50:10:38.5:1.5, and mRNA were diluted in 10 to 50 mM citrate buffer, pH=4. The LNPs were prepared at a total lipid to mRNA weight ratio of approximately 10:1 to 30:1 by mixing the ethanolic lipid solution with the aqueous mRNA solution at a volume ratio of 1:3 using a microfluidic apparatus, total flow rate ranging from 9-30 mL/min. Ethanol were thereby removed and replaced by DPBS using dialysis. Finally, the lipid nanoparticles were filtered through a 0.2 μm sterile filter.
(§2) Lipid nanoparticle size were determined by dynamic light scattering using a Malvern Zetasizer Nano ZS (Malvern UK) using a 173° backscatter detection mode. The encapsulation efficiency of lipid nanoparticles were determined using a Quant-it Ribogreen RNA quantification assay kit (Thermo Fisher Scientific, UK) according to the manufacturer's instructions.

[2] = Apparent pKa of LNP formulations, TNS fluorescence assay; conditions: LNP cationic lipid/DSPC/cholesterol/DMG-PEG 50/10/38.5/1.5 mol %, pH 3 to 9
Method: As reported in literature, the apparent pKa of LNP formulations correlates with the delivery efficiency of LNPs for nucleic acids in vivo. The apparent pKa of each formulation was determined using an assay based on fluorescence of 2-(p-toluidino)-6-napthalene sulfonic acid (TNS). LNP formulations comprising of cationic lipid/DSPC/cholesterol/DMG-PEG (50/10/38.5/1.5 mol %) in PBS were prepared as described above. TNS was prepared as a 300 uM stock solution in distilled water. LNP formulations were diluted to 0.1 mg/ml total lipid in 3 mL of buffered solutions containing 50 mM sodium citrate, 50 mM sodium phosphate, 50 mM sodium borate, and 30 mM sodium chloride where the pH ranged from 3 to 9. An aliquot of the TNS solution was added to give a final concentration of 0.1 mg/ml and following vortex mixing fluorescence intensity was measured at room temperature in a Molecular Devices Spectramax iD3 spectrometer using excitation and mission wavelengths of 325 nm and 435 nm. A sigmoidal best fit analysis was applied to the fluorescence data and the pKa value was measured as the pH giving rise to half-maximal fluorescent intensity.

[3] = Encapsulation efficiency of lipid nanoparticles, Quant-it Ribogreen RNA quantification assay; conditions: LNP with mRNA
Method: as §1, §2

Structure (SMILES)	polydispersity [1]	size (nm) [1]	Apparant Pka [2]	Encapsulation Efficiency [3]
CCCCCCCCCCCCOCC(CN(CCCCCC(=O)OCC(CCCCCC)CCCCCCCC)CCN(CCO)C1CCCCC1)OC(C)=O (stereo not drawn) [Compound 21]	0.221	74.88 nm	5.49	85.5%
CCCCCCCCCCCCOCC(CN(CCCCCC(=O)OCC(CCCCCC)CCCCCCCC)CCN(CCO)C1CC1)OCCCCCC (stereo not drawn) [Compound 22]	0.206	68.67 nm	5.457	83.5%
CCCCCCCCCCCCOCC(CN(CCCCCC(=O)OCC(CCCCCC)CCCCCCCC)CCN(CCO)C1CCC1)OCCCCCC (stereo not drawn) [Compound 23]	0.076	74.73 nm	5.993	88.5%
CCCCCCCCCCCCOCC(CN(CCCCCC(=O)OCC(CCCCCC)CCCCCCCC)CCN(CCO)C1CCCC1)OCCCCCC (stereo not drawn) [Compound 24]	0.094	56.39 nm	6.005	93.0%
CCCCCCCCCCCCOCC(CN(CCCCCC(=O)OCC(CCCCCC)CCCCCCCC)CCN(CCO)C1CCCCCC1)OCCCCCC (stereo not drawn) [Compound 26]	0.153	55.8 nm	5.696	93.30%
CCCCCCCCCCCCOCC(CN(CCCCCC(=O)OCC(CCCCCC)CCCCCCCC)CCN(CCO)C1CC1)OCCCCCCCCCCCC (stereo not drawn) [Compound 27]	0.139	65.62 nm	5.351	73.3%
CCCCCCCCCCCCOCC(CN(CCCCCC(=O)OCC(CCCCCC)CCCCCCCC)CCN(CCO)C1CCC1)OCCCCCCCCCCCC (stereo not drawn) [Compound 28]	0.2	54.96 nm	5.905	86.9%
CCCCCCCCCCCCOCC(CN(CCCCCC(=O)OCC(CCCCCC)CCCCCCCC)CCN(CCO)C1CCCC1)OCCCCCCCCCCCC (stereo not drawn) [Compound 29]	0.110	53.73 nm	5.699	80.1%
CCCCCCCCCCCCOCC(CN(CCCCCC(=O)OCC(CCCCCC)CCCCCCCC)CCN(CCO)C1CCCCC1)OCCCCCCCCCCCC (stereo not drawn) [Compound 30]	0.107	49.64 nm	5.409	92.7%
CCCCCCCCCCCCOCC(CN(CCCCCC(=O)OCC(CCCCCC)CCCCCCCC)CCN(CCO)C1CCCCCC1)OCCCCCCCCCCCC (stereo not drawn) [Compound 31]	0.127	51.35 nm	5.704	80.1%
CCCCCCCCC(CCCCCC)CC(=O)OCC(CN(CCO)C1CCC1)OC(=O)CC(CCCCCC)CCCCCCCC (stereo not drawn) [Compound 32]	0.232	59.1 nm	3.519	44.6%
CCCCCCCCCCCCOCC(CN(CCCCCC(=O)OCC(CCCCCC)CCCCCCCC)CCN(CCO)C1CCC1)OCCCCCCCC (stereo not drawn) [Compound 33]	0.06	63.54 nm	5.943	94.30%
CCCCCCCCCCCCOCC(CN(CCCCCC(=O)OCC(CCCCCC)CCCCCCCC)CCN(CCO)C1CC1)OCCCCCCCC (stereo not drawn) [Compound 34]	0.103	58.33 nm	5.482	89.60%
CCCCCCCCCCCCOCC(CN(CCCCCC(=O)OCC(CCCCCC)CCCCCCCC)CCN(CCO)C1CCCC1)OCCCCCCCC (stereo not drawn) [Compound 35]	0.1	56.71 nm	5.940	96.80%
CCCCCCCCCCCCOCC(CN(CCCCCC(=O)OCC(CCCCCC)CCCCCCCC)CCN(CCO)C1CCCCC1)OCCCCCCCC (stereo not drawn) [Compound 36]	0.078	59.91 nm	5.774	94.20%
CCCCCCCCCCCCOCC(CN(CCCCCC(=O)OCC(CCCCCC)CCCCCCCC)CCN(CCO)C1CCCCCC1)OCCCCCCCC (stereo not drawn) [Compound 37]	0.156	51.77 nm	5.726	92.70%
CCCCCCCCCCCCOCC(CN(C)CCN(CCO)C1CCC1)OCCCCCC (stereo not drawn) [Compound 38]	0.194	97.62 nm	6.971	76.2%
CCCCCCCCCCCCOCC(CN(C)CCN(CCO)C1CCC1)OCCCCCCCCCCCC (stereo not drawn) [Compound 39]	0.162	111.2 nm	6.712	94.7%
CCCCCCCCCCCCOCC(CN(C)CCO)OC(=O)CCCCCCCCCCC (stereo not drawn) [Compound 41]	0.136	82.81 nm	5.746	83.5%
CCCCCCCCCCCCOCC(CN(C)CCN(CCO)C1CCC1)OC(=O)CCCCCCCCCCC (stereo not drawn) [Compound 42]	0.155	82.81 nm	6.283	94.4%
CCCCCCCCCOC(=O)CCOCC(CN(C)CCN(CCO)C1CCC1)OCCC(=O)OCCCCCCCCC (stereo not drawn) [Compound 43]	0.362	138.6 nm	7.227	78.4%
CCCCCCCCCCCCOCC(CN(C)CCN(CCO)C1CCC1)OC(=O)CCCCC (stereo not drawn) [Compound 44]	0.178	112.8 nm	6.65	85.2%
CCCCCCCCCCCCOCC(CN(C)CCN(CCO)C1CCCCC1)OCCCCCC (stereo not drawn) [Compound 45]	0.289	68.33 nm	7.466	86.8%
CCCCCCCCCCCCCCCCCCOCC(CN(CCCCCC(=O)OCCCCCCCCCC)CCN(CCO)C1CCC1)OCCCCCC (stereo not drawn) [Compound 46]	0.039	103.3 nm	6.047	95.9%
